In PubChem BioAssay (NCI) one finds GI50 and TGI data, which are given here for eight compounds.

Some test systems named below: SR leukemia; RPMI-8226 leukemia; BT-549 breast; SF-268 CNS; OVCAR-8 ovarian; CAKI-1 renal; SF-539 CNS; NCI-H522 lung; SW-620 colon; SNB-75 CNS.
Common to all, as to assay: NCI anticancer screen, dose series, 48 h

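Protocol summary: plate cells (96-well), add compound at 5 concentrations, incubate 48 h, interpolate endpoints linearly. The concentration for 50% growth inhibition is given as GI50. Definition used: TGI = concentration required for complete inhibition of growth.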

For the compound `COc1ccc(Cn2cnc3cc(C(=O)Nc4cccc5ccccc45)ccc32)c(OC)c1`, the GI50 with SR leukemia is 0.0228 µM; with RPMI-8226 leukemia, 0.0368 µM; in the assay on BT-549 breast, 0.0603 µM; with SF-268 CNS it was 0.104 µM; in the assay with OVCAR-8 ovarian it was 0.0603 µM; in the assay on CAKI-1 renal, 0.0387 µM. The results for the GI50 in the assay with SF-539 CNS, with NCI-H522 lung and with SW-620 colon were 0.0316 µM, 0.039 µM and 0.0334 µM, respectively. In addition, the TGI in the assay on SR leukemia is over 100 µM; with RPMI-8226 leukemia, 12.5 µM; in the assay on BT-549 breast it was 6.53 µM; in the assay on SF-268 CNS, over 51.7 µM; with OVCAR-8 ovarian it was over 100 µM; in the assay with CAKI-1 renal, over 100 µM. Also, the TGI was 0.147 µM with SF-539 CNS and over 100 µM with SW-620 colon.

With `COC(=O)c1oc2c(O)c(OC)c(Br)cc2c1C`, the GI50 in the assay with SR leukemia is 0.354 µM; in the assay with RPMI-8226 leukemia, 20.9 µM; in the assay with BT-549 breast, 17.7 µM; in the assay on SF-268 CNS it was 31 µM; with OVCAR-8 ovarian, 28.7 µM; in the assay on CAKI-1 renal it was 43.4 µM. The GI50 with NCI-H522 lung is 37.4 µM; with SW-620 colon it was 30.5 µM. The TGI in the assay on SR leukemia is 18.2 µM; in the assay on RPMI-8226 leukemia, 47.8 µM; in the assay with BT-549 breast, 42.6 µM; in the assay on SF-268 CNS, over 100 µM; in the assay on OVCAR-8 ovarian, 91.7 µM; with CAKI-1 renal it was over 100 µM. Moreover, the TGI in the assay on NCI-H522 lung was over 100 µM; with SW-620 colon, 82.5 µM.

Regarding `COc1cc(-n2cc(-c3ccc(F)cc3)[nH]c2=S)cc(OC)c1OC`, the GI50 was 17.9 µM in the assay on SNB-75 CNS; over 100 µM in the assay with RPMI-8226 leukemia; 58 µM in the assay on BT-549 breast; 32.8 µM with SF-268 CNS; over 100 µM with OVCAR-8 ovarian; 38.1 µM with CAKI-1 renal. The GI50 was 63.1 µM in the assay on SF-539 CNS, over 100 µM with NCI-H522 lung and over 100 µM in the assay with SW-620 colon. The TGI in the assay with SNB-75 CNS is 46.5 µM; in the assay on RPMI-8226 leukemia, over 100 µM; in the assay with BT-549 breast, over 100 µM; with SF-268 CNS, over 100 µM; in the assay with OVCAR-8 ovarian, over 100 µM; with CAKI-1 renal, over 100 µM. The TGI in the assay on SF-539 CNS, in the assay on NCI-H522 lung and in the assay with SW-620 colon was over 100 µM in each case.

As to `CC(=O)c1c(O)ccc2c(C)c(C(=O)O)oc12`, the GI50 with SNB-75 CNS, in the assay with RPMI-8226 leukemia, in the assay on BT-549 breast, in the assay with SF-268 CNS, with OVCAR-8 ovarian and with CAKI-1 renal was over 100 µM each time. The GI50 in the assay on SF-539 CNS, with NCI-H522 lung and with SW-620 colon was over 100 µM throughout. Besides, the TGI in the assay with SNB-75 CNS, in the assay on RPMI-8226 leukemia, with BT-549 breast, with SF-268 CNS, in the assay on OVCAR-8 ovarian and with CAKI-1 renal was over 100 µM in each case. Also, the TGI in the assay with SF-539 CNS, with NCI-H522 lung and in the assay on SW-620 colon was over 100 µM in each case.

`O=c1[nH]ccc2nc(-c3ccc(CN4CCC(c5nc(-c6ccccn6)n[nH]5)CC4)cc3)c(-c3ccccc3)cc12`: the GI50 is 2.34 µM in the assay with SR leukemia; 0.0534 µM in the assay with SNB-75 CNS; 4.85 µM in the assay on RPMI-8226 leukemia; 0.711 µM in the assay with BT-549 breast; 25.9 µM with SF-268 CNS; 20 µM with OVCAR-8 ovarian. The results for the GI50 with SF-539 CNS, in the assay on NCI-H522 lung and in the assay with SW-620 colon were 4.81 µM, 22.2 µM and 42.3 µM, respectively. Moreover, the TGI in the assay on SR leukemia is 66 µM; in the assay on SNB-75 CNS, 7.75 µM; with RPMI-8226 leukemia it was over 50.2 µM; with BT-549 breast, 30 µM; in the assay with SF-268 CNS, over 100 µM; with OVCAR-8 ovarian, over 100 µM. The TGI in the assay on SF-539 CNS is 20.8 µM; in the assay with NCI-H522 lung, over 64.2 µM; in the assay with SW-620 colon, over 100 µM.

In the case of `CCCCCCCCCCCCSC(=NC)NC`, the GI50 was 1.37 µM with SR leukemia; 1.78 µM with SNB-75 CNS; 2.07 µM in the assay on RPMI-8226 leukemia; 4.09 µM in the assay on BT-549 breast; 3.82 µM in the assay on SF-268 CNS; 2.88 µM with OVCAR-8 ovarian. For the same compound, the GI50 is 1.92 µM in the assay on CAKI-1 renal and 1.67 µM in the assay with SF-539 CNS. Also, the TGI in the assay with SR leukemia was 5.32 µM; in the assay on SNB-75 CNS, 3.55 µM; in the assay on RPMI-8226 leukemia, 4.77 µM; with BT-549 breast, 21 µM; in the assay on SF-268 CNS it was 22.5 µM; in the assay with OVCAR-8 ovarian, over 100 µM. Moreover, the TGI in the assay on CAKI-1 renal amounted to 4.8 µM; in the assay with SF-539 CNS, 3.14 µM.

Turning to `O=C1Nc2ccccc2/C1=C/c1cn(C(=O)c2c(Cl)cccc2Cl)c2ccccc12`, the GI50 in the assay on SR leukemia is 2.25 µM; in the assay on RPMI-8226 leukemia, 3.38 µM; in the assay with BT-549 breast it was 2.4 µM; in the assay on SF-268 CNS it was 2.38 µM; with OVCAR-8 ovarian, 4.12 µM; with CAKI-1 renal, 1.89 µM. Besides, the values for the GI50 in the assay on SF-539 CNS, in the assay on NCI-H522 lung and in the assay with SW-620 colon were 4.96 µM, 4.22 µM and 2.9 µM, respectively. In addition, the TGI in the assay on SR leukemia worked out at 8.13 µM; in the assay on RPMI-8226 leukemia, 23.6 µM; with BT-549 breast, 8.95 µM; with SF-268 CNS, 10.6 µM; in the assay with OVCAR-8 ovarian it was 37.4 µM; in the assay with CAKI-1 renal, 5.77 µM. The TGI in the assay with SF-539 CNS was found to be 21.1 µM; in the assay with NCI-H522 lung it was 17.5 µM; with SW-620 colon, 12.5 µM.

Turning to `COC(=O)c1cc2c3ccccc3n3c(=O)c4cc5cc(OC)c(N(S(=O)(=O)c6ccc(C)cc6)S(=O)(=O)c6ccc(C)cc6)cc5nc4c(n1)c23`, the GI50 in the assay with SR leukemia is 41.4 µM; in the assay on SNB-75 CNS, 3.99 µM; in the assay with BT-549 breast, 11 µM; with SF-268 CNS, 7.78 µM; in the assay with OVCAR-8 ovarian it was 67.9 µM; in the assay on CAKI-1 renal it was over 100 µM. Besides, the values for the GI50 with SF-539 CNS and in the assay on SW-620 colon were 13 µM and over 100 µM, respectively. Further, the TGI with SR leukemia is over 100 µM; in the assay with SNB-75 CNS it was 20.4 µM; in the assay on BT-549 breast it was 27.8 µM; with SF-268 CNS, over 100 µM; in the assay with OVCAR-8 ovarian, over 100 µM; in the assay with CAKI-1 renal, over 100 µM. Also, the TGI was 30.6 µM with SF-539 CNS and over 100 µM in the assay on SW-620 colon.
